In the test the test system is E. coli K12 ATCC 25404. The test is described as follows: Continuous culture (chemostat) biomass yield. The format is cell-based, Escherichia coli. The note with it: for inhibition of growth at 5 ppm / inhibition of growth at 2 ppm / inhibition of growth at 1 ppm: Escherichia coli, read-out: % From Control. Here is the method: Biomass determinations were by Millipore Filtration using Millipore type H.A. 0.45 µ filters. Samples were centrifuged @ 15,000 x for 10 min., supernatant was filtered through a dried and preweighed filter. The centrifuged pellet was then vortexed in 2 mL of D.I. water and filtered also. Samples were then dried overnight @ 105°C and re-weighed. Biomass was the weight of the dried filter less the tared filter weight.
Glucose determinations were carried out on the centrifuged reactor sample supernatants using glucose enzymatic assay (hexokinase and glucose 6-phosphate dehydrogenase) UV-15 Sigma Chemical Co., St. Louis, MO. (Assay set-up pamphlet accompanies kit). Spectrophotometric measurements were run on a Zeiss PM-6 Spektralphotometer, Carl Zeiss, 7082 Oberkochen, West Germany.
Continuous culture medium was composed of 5 g/1 glucose, 40 mL/1 25 X VBE, and 2.5 mL/1 trace mixture. Bulk medium composed of deionized H20 plus 25X VBE was steam sterilized for 45 min. @ 121°C. Trace mix was autoclaved separately and added aseptically. Glucose was filter sterilized and added last (aseptically).
Bioflo Model C32 Chemostat units (bioreactors) , New Brunswick Scientific, Edison NJ, with a working volume of 1400 mL were utilized for the continuous culture experimentation. pH control on the systems was maintained by Model 5997-20 Horizon pH Controllers. Ingold Sterilizable pH Electrodes, Type 465-35-K9, Andover, MA, were sterilized in place before each run. pH adjustment was by controller addition of sterile 2N NaOH upon demand.
Sterile chemostats vessels were filled to working volume with media seeded with 10 mL of 48 hr. E. coli K12 ATCC 25404 culture grown up overnight in nutrient broth (BBL, Cockeysville, MD) @ 37°C. Reactors were run for 72 hours in the batch mode @ 37°C, and then put into continuous flow. The reactors were run for a minimum of five reactor turnovers before initial sampling to insure a steady state. Sampling was then conducted at a maximum of once/reactor turnover, with a minimum number of 11 reactor turnovers per chemostat run. Both control and BNS containing chemostats were stripped, cleaned and the E. coli culture reestablished (as above) each time before either the BNS concentration or the dilution rate was increased. Eleven reactor turnovers is equivalent to 3.5 days at the highest dilution rate used (minimum time for a chemostat run). Uncoupler Addition to Continuous Culture
BNS stock was composed of 10% BNS, 5% Triton X-114 and 85% carbitol acetate. BNS was diluted in deionized water to the appropriate 10X concentration desired. Breakdown kinetics were measured in a deionized H20/BNS system by spectrophotometric measurement at 320 nm and a BNS half life was determined to be 7 hours. Continuous and separate pumping of uncoupler was by a Masterflex 7552-10 peristalic pump (Cole Parmer, Chicago, IL) through silicon tubing lines into the bioreactor. Feed flow was split 90% organic feed, 10% BNS feed for total flow. New uncoupler feed was made up daily from the previously mentioned stock, since there was only 10% of the original BNS concentration left before the new daily solution of BNS feed was begun. BNS dose of 1, 2 and 5 ppm was based on the total bulk feed. Reservoir solutions were mixed constantly on a Fisher versamix magnetic stir plate at a speed of 0.4/1.0 to prevent settling out of chemical.
Chemostat system parameters were set at pH - 7.0, temper, ature 37°C, aeration 2.0 standard litres per minute (SLPM) and agitation at 300 rpm for all experimentation.
Daily checks were made on system for pH, media flow, NaOH consumption, BNS flow, temperature; agitation speed and aeration rate. Mixed liquor glucose and gravimetric biomass determinations were performed at least 5 times per week. Periodic checks were also made on the organic strength of the influent medium, depending on the frequency of new media make-up.

Structures are written as SMILES. Like-named read-outs stand apart in the source and are kept apart here.

With `O=[N+]([O-])C(Br)=Cc1ccccc1` [BNS, beta-bromo-beta-nitrostyrene], the “Biomass Yield” value is given as 0.268 g cells/g substrate (1.0 ppm BNS, Dilution Rate 0.068 hr.^-1); 0.276 g cells/g substrate (1.0 ppm BNS, Dilution Rate 0.086 hr.^-1); 0.324 g cells/g substrate (1.0 ppm BNS, Dilution Rate 0.132 hr.^-1); 0.273 g cells/g substrate (2.0 ppm BNS, Dilution Rate 0.066 hr.^-1); 0.241 g cells/g substrate (2.0 ppm BNS, Dilution Rate 0.090 hr.^-1); 0.275 g cells/g substrate (2.0 ppm BNS, Dilution Rate 0.130 hr.^-1). Moreover, the “Biomass Yield” value runs as follows: (5.0 ppm BNS, Dilution Rate 0.070 hr.^-1) 0.287 g cells/g substrate; (5.0 ppm BNS, Dilution Rate 0.090 hr.^-1) 0.237 g cells/g substrate; (5.0 ppm BNS, Dilution Rate 0.131 hr.^-1) 0.298 g cells/g substrate. Further, the inhibition of growth at 5 ppm was found to be 9.5% (ATCC25404, 0.07 h, 5.0 ppm BNS, Dilution Rate 0.070 hr.^-1); 27.3% (ATCC25404, 0.09 h, 5.0 ppm BNS, Dilution Rate 0.090 hr.^-1); 11.5% (ATCC25404, 5.0 ppm BNS, Dilution Rate 0.131 hr.^-1). In addition, the inhibition of growth at 2 ppm reads like this: (ATCC25404, 0.09 h, 2.0 ppm BNS, Dilution Rate 0.090 hr.^-1) 26.1%; (ATCC25404, 0.13 h, 2.0 ppm BNS, Dilution Rate 0.130 hr.^-1) 18.3%; (ATCC25404, 2.0 ppm BNS, Dilution Rate 0.066 hr.^-1) 13.3%. The inhibition of growth at 1 ppm (ATCC25404, 1.0 ppm BNS, Dilution Rate 0.068 hr.^-1) was 15.2%; the inhibition of growth at 1 ppm (ATCC25404, 1.0 ppm BNS, Dilution Rate 0.086 hr.^-1) worked out at 15%; the inhibition of growth at 1 ppm (ATCC25404, 1.0 ppm BNS, Dilution Rate 0.132 hr.^-1) was 3.9%.

For the origin of these results see patent EP0162545A2, “Enhanced bioconversion processes” (BETZ EUROPE, INC., priority 1984, dated 1985).
